# Reference: patent publication US20190136292A1, “Universal Calibration Method for Assaying Enzymatic Inhibitors” (Diagnostica Stago, priority 2016, published 2019)
# Values joined by “and” are separate entries in the source; they are usually repeats but may differ in a detail not shown here. Equal values may be shown once. Read-outs that look alike come from different tables or passages of the source.
# Target: F.Xa (factor Xa of bovine origin) (Bos taurus, UniProt P00743)
# Conditions: for conversion chart constant e (equation 2, anti-Xa activity % to ng/ml) / conversion chart constant i (equation 2, anti-Xa activity % to ng/ml): non-linear regression of equation 2
# Text: The reagents from the commercial kit STA®—Liquid Anti-Xa (Diagnostica Stago, Asniéres sur Seine, France), F.Xa (factor Xa of bovine origin) and substrate (MAPA-Gly-Arg-pNA) were used. These commercial reagents and also the pool of normal human plasma Pool Norm (Diagnostica Stago, Asnieres sur Seine, France), the Owren Koller buffer (OKB) (pH 7.35, STA®—Owren-Koller, Diagnostica Stago, Asnieres sur Seine, France) and the desorption solution (DU) STA®—Desorb U (Diagnostica Stago, Asnieres sur Seine, France) were regenerated at room temperature for 30 minutes, as recommended by the manufacturer.
# The kinetics were monitored by colorimetry at 405 nm, detecting the release of para-nitroanilide (pNA). The optical density (OD) was measured every two seconds. Two methodologies were optimized for assaying the three direct oral anti-Xa anticoagulants: the broad-range methodology and the narrow-range methodology. This is because the broad-range methodology makes it possible to assay the anticoagulants over the whole of the desired range; however, since the measurement of low concentrations of these anticoagulants requires great precision a narrow-range methodology was therefore developed.
# In broad range, 6.25 μl of biological sample (plasma) were diluted with OKB in a final volume of 50 μl. The microcuvette was incubated for 240 seconds at 37° C. in the presence of 150 μl of substrate. The reaction was started by the addition of 150 μl of F.Xa, incubated beforehand at 37° C. In narrow range, 25 μl of sample were diluted with 25 μl of OKB. The experimental conditions for addition of substrate and enzyme are the same as for the broad-range methodology. The gradients were determined between 50 and 80 seconds.
# The calibration was carried out from a range of F.Xa composed of 10 points ranging from 10% to 100% F.Xa, corresponding to an anti-Xa activity ranging from 90% to 0%. The range was created from reagents from the kit STA® Liquid Anti-Xa. The F.Xa (2 ml, 1.8 ml, . . . , 0.2 ml) was diluted in OKB (0 ml, 0.2 ml . . . 1.8 ml) for a final volume of 2 ml. The pool of healthy plasmas dated 04/2014 was used for this experiment. 5% DMSO was diluted to 1/20th in the plasma. The results (measurements of the OD/min between 50 and 80 seconds) were determined in two replicates.
# The gradients of the kinetics measured for the 10 calibration points make it possible to plot the graph of anti-Xa activity (%) as a function of the OD/min. The equation of the line obtained is used to convert the OD/min of the samples tested into anti-Xa activity as percentage. The equation of the line is given by a polynomial regression of first order or of second order.
# The parameters of the chart, specific to each direct oral anticoagulant (DOA), were determined for both of the methodologies (broad-range methodology and narrow-range methodology) by a non-linear regression of equation 2 on a few experimental points. […] The OD/min was measured for each sample between 50 and 80 seconds.
# The limit of blank (LoB) was determined according to a standard procedure. The five different plasmas used were those dated January 2011, March 2012, April 2014, November 2014 and February 2015. Four replicates were carried out each day for three days, on the same automated device. The tests were carried out for the broad-range and narrow-range methodologies.
# The limit of detection (LoD) was determined according to a standard procedure. Low-analyte plasmas were prepared. The overloads were carried out to 1/20th. The plasma dated 04/2014 was used. […] In narrow range, the concentrations of the overloads were 5 ng/ml for the three anticoagulants. Five overloads were produced for a final volume of 900 μl. When the regression of the universal calibration was a second-order polynomial, the concentrations of analytes in broad range and in narrow range were 2 ng/ml for the three direct oral anticoagulants (DOAs). The final volume of the overloads was 1000 μl. Each overload was separated into three tubes.
# [1] = broad-range methodology, plasma sample diluted 1/8 in OKB, linear universal calibration
# [2] = narrow-range methodology, plasma sample diluted 1/2 in OKB, linear universal calibration
# [3] = optimization in narrow-range methodology, universal calibration regressed by second-order polynomial
# F.Xa (factor Xa of bovine origin), sequence (P00743 234-492 limits assumed): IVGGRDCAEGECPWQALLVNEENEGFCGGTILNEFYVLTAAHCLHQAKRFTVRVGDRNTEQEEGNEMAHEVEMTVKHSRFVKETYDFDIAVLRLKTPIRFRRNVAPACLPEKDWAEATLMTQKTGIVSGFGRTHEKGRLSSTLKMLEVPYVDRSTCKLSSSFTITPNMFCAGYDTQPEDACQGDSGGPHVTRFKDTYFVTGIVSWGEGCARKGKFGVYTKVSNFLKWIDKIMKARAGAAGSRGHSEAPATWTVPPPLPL
# F.Xa (factor Xa of bovine origin), sequence (P00743 41-180 partner limits assumed): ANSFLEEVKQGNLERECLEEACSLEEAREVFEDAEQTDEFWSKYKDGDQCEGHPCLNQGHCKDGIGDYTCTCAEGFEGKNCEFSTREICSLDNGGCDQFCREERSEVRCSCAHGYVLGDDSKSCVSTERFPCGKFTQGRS
smiles,measurement,setting,value
COc1ccc(-n2nc(C(N)=O)c3c2C(=O)N(c2ccc(N4CCCCC4=O)cc2)CC3)cc1 [apixaban],"conversion chart constant e (equation 2, anti-Xa activity % to ng/ml)",broad-range methodology,14.66
same,"conversion chart constant i (equation 2, anti-Xa activity % to ng/ml)",broad-range methodology,1.35
same,LoB (limit of blank),[1],16.613 ng/mL
same,LoD (limit of detection),[1],21.8 ng/mL and 21.723 ng/mL
same,"conversion chart constant e (equation 2, anti-Xa activity % to ng/ml)",narrow-range methodology,13.23
same,"conversion chart constant i (equation 2, anti-Xa activity % to ng/ml)",narrow-range methodology,2.91
same,LoB (limit of blank),[2],5.450 ng/mL
same,LoD (limit of detection),[2],6.9 ng/mL and 6.882 ng/mL
same,LoB (limit of blank),[3],2.759 ng/mL
same,LoD (limit of detection),[3],4.001 ng/mL
